Test results published in US9757385B2, “Method of treating leukemia using pharmaceutical formulation containing thienotriazolodiazepine compounds” (ONCOETHIX GmbH, priority 2013, dated 2017).
Where a name gives a salt, the structure may show the parent alone. Values belong to the compound of their own block, whether it stands above or below them.

What was measured:
HDAC = details: cited from earlier work
HDAC3 = HDAC3 (Homo sapiens, UniProt O15379); details: cited from earlier work
FKBP12 = FKBP12 (Homo sapiens, UniProt P62942); details: mTOR inhibitor of FKBP12; cited from earlier work
PI3K/mTOR = details: dual PI3K/mTOR inhibitor; cited from earlier work
[1] = test system: Akt phosphorylation on T308; details: cited from earlier work
[2] = test system: Akt phosphorylation on S473; details: cited from earlier work
Reh cells = details: in Reh cells; cited from earlier work
MOLT-4 cells = details: in MOLT-4 cells; cited from earlier work
mTOR = mTOR (Homo sapiens, UniProt P42345); details: cited from earlier work
BRD2 and BRD4 = BRD2 and BRD4 mRNA and protein in Jurkat cells; assay type: cell-based, human
[3] = test system: K-562, NALM-1, CCRF-CEM, MOLT-3 and -4; test: MTT assay, anti-proliferative effect, rest of the panel; assay type: cell-based; details: Homo sapiens; the rest of the eight cell lines, 72-h exposure
Description: (§1) MTT assays were performed after 72 hours exposure. Protein levels were analyzed by Western Blot using commercial antibodies. RNA was extracted using the Qiagen RNAEasy and RT-PCR was performed using Fast SYBR Green on a StepOnePlus Real-Time PCR System. Combination effects were evaluated in four cell lines (HL60, U937, Jurkat and K562); compound (1-1) was administered with daunorubicin, azacytidine, dexamethasone, cytarabine or methotrexate. The 48 h Combination Index (CI) was determined by median effect plot analysis using CalcuSyn software expressed as the median and range of CI values among cell lines (Chou & Talalay analysis). CI<1 reflects synergy effects, CI=1 reflects additivity and CI>1 reflects antagonist effects.

c-MYC [4] = test: c-MYC mRNA (RT-PCR) and protein (Western Blot) in sensitive cell lines; assay type: cell-based, human
Description: as §1
(§2) Four established human cell lines derived from acute (HL60, U937), chronic (K562) myeloid leukemia, and acute lymphoblastic leukemia (Jurkat) were treated with increasing compound (1-1) doses. MTT assays were performed after 72 h exposure. GI50 and Emax values were calculated with the equation for sigmoidal dose response using Prism 5.00. […] Protein levels were analyzed by Western Blot using commercial antibodies. For cell cycle analysis and apoptosis induction, cells were stained with PI or Annexin V respectively, and analyzed using a FACScan flow cytometer. […] The Combination Index (CI) was determined by median effect plot analysis using CalcuSyn software. […]

[5] = test system: compound (1-1) sensitive cell lines (HL60, U937 and Jurkat); test: Cell cycle analysis and apoptosis induction; assay type: cell-based, human
Description: (§3) Four established human cell lines derived from acute (HL60, U937), chronic (K562) myeloid leukemia, and acute lymphoblastic leukemia (Jurkat) were treated with increasing compound (1-1) doses. MTT assays were performed after 72 h exposure. GI50 and Emax values were calculated with the equation for sigmoidal dose response using Prism 5.00. Results are the mean±95% CI of at least 3 independent experiments performed in triplicate. […] Protein levels were analyzed by Western Blot using commercial antibodies. For cell cycle analysis and apoptosis induction, cells were stained with PI or Annexin V respectively, and analyzed using a FACScan flow cytometer. RT-PCR was performed using Fast SYBR Green Master Mix on a StepOnePlus Real-Time PCR System. Cell cycle, apoptosis induction and qRT-PCR results are the mean±SD of at least 3 independent experiments, where *p<0.05, **p<0.001 and ***p<0.0001 versus control cells (0.1% DMSO), employing Anova then Dunnett's Multiple Comparison Test. Compound (1-1) combination studies were performed in cell lines exposed for 48 h to increasing doses of compound (1-1) alone or in combination several conventional anti-leukemic drugs, such as epigenetic modulators, steroids, m-TOR inhibitors and classical cytotoxic agents, and assessed using the Chou & Talalay method. For the sequential combination schemes, cell lines were exposed to azacytidine or panobinostat for 48 or 72 h, washed with drug-free medium and then treated with compound (1-1) for 24 or 48 h. The Combination Index (CI) was determined by median effect plot analysis using CalcuSyn software. CI<1 reflects synergy, CI=1 additivity and CI>1 antagonist effects. Results represent the median and range of 4 independent experiments performed in triplicate.

HL60 = test: MTT assay, anti-proliferative effect; assay type: cell-based; details: Homo sapiens, HL-60; HL60, 72-h exposure; range given for HL60, U937 and Jurkat together
Description: as §1
as §3, with “Cell cycle, apoptosis induction and qRT-PCR results are the mean±SD of at least 3 independent experiments, where *p<0.05, **p<0.001 and ***p<0.0001 versus control cells (0.1% DMSO), employing Anova then Dunnett's Multiple Comparison Test.” left out, “For the sequential combination schemes, cell lines were exposed to azacytidine or panobinostat for 48 or 72 h, washed with drug-free medium and then treated with compound (1-1) for 24 or 48 h.” left out, “CI<1 reflects synergy, CI=1 additivity and CI>1 antagonist effects. Results represent the median and range of 4 independent experiments performed in triplicate.” left out

U937 = test: MTT assay, anti-proliferative effect; assay type: cell-based; details: Homo sapiens, U-937; U937, 72-h exposure; range given for HL60, U937 and Jurkat together
Description: as §1
as §3, with “Cell cycle, apoptosis induction and qRT-PCR results are the mean±SD of at least 3 independent experiments, where *p<0.05, **p<0.001 and ***p<0.0001 versus control cells (0.1% DMSO), employing Anova then Dunnett's Multiple Comparison Test.” left out, “For the sequential combination schemes, cell lines were exposed to azacytidine or panobinostat for 48 or 72 h, washed with drug-free medium and then treated with compound (1-1) for 24 or 48 h.” left out, “CI<1 reflects synergy, CI=1 additivity and CI>1 antagonist effects. Results represent the median and range of 4 independent experiments performed in triplicate.” left out

Jurkat = test: MTT assay, anti-proliferative effect; assay type: cell-based; details: Homo sapiens, 72-h exposure, range given for HL60, U937 and Jurkat together
Description: as §1
as §3, with “Cell cycle, apoptosis induction and qRT-PCR results are the mean±SD of at least 3 independent experiments, where *p<0.05, **p<0.001 and ***p<0.0001 versus control cells (0.1% DMSO), employing Anova then Dunnett's Multiple Comparison Test.” left out, “For the sequential combination schemes, cell lines were exposed to azacytidine or panobinostat for 48 or 72 h, washed with drug-free medium and then treated with compound (1-1) for 24 or 48 h.” left out, “CI<1 reflects synergy, CI=1 additivity and CI>1 antagonist effects. Results represent the median and range of 4 independent experiments performed in triplicate.” left out

[6] = test system: HL60, U937, Jurkat and K562; test: Combination Index, Chou & Talalay median effect analysis; assay type: cell-based, human; details: OTX015-sensitive and resistant leukemic cells lines
c-MYC [7] = test: c-MYC RNA and protein in resistant cell line K562; assay type: cell-based, human
Description: as §1, §2

PI3Kβ (p110β) = PI3Kβ (p110β) (Homo sapiens, UniProt P42338); details: cited from earlier work
PI3Kγ (p110γ) = PI3Kγ (p110γ) (Homo sapiens, UniProt P48736); details: cited from earlier work
[8] = sensitive leukemic cells, 48 h exposure to 500 nM (Example 8)

PI3Kγ (p110γ), sequence (P48736 whole entry, species assumed): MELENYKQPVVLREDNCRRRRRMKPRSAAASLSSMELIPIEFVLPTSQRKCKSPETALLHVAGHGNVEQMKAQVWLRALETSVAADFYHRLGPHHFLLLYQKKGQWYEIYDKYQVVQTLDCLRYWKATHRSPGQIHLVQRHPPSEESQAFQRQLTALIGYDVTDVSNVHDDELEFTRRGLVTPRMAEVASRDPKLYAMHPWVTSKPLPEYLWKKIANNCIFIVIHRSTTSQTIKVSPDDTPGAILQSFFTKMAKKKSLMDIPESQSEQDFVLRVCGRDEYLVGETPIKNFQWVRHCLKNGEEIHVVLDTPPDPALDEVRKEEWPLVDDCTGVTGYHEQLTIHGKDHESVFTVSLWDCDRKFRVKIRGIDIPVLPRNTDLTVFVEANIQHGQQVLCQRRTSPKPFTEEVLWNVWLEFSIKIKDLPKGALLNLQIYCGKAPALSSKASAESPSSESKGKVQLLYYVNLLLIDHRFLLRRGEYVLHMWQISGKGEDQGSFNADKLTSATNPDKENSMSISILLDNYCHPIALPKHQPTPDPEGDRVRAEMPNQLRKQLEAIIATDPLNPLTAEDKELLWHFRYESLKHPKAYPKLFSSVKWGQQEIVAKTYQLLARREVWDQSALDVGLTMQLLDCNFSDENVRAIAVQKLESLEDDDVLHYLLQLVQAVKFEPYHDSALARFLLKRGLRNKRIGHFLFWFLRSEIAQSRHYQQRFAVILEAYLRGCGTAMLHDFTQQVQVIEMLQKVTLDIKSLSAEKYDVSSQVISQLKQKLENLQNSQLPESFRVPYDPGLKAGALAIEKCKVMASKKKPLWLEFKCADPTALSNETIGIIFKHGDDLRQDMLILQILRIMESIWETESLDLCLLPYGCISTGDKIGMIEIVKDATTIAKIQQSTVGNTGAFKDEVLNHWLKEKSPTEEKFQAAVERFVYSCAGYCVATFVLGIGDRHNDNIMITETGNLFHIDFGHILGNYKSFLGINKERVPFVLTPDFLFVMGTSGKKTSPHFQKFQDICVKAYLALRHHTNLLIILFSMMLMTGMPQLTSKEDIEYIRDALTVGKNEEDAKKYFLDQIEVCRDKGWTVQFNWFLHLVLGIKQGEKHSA
PI3Kβ (p110β), sequence (P42338 whole entry, species assumed): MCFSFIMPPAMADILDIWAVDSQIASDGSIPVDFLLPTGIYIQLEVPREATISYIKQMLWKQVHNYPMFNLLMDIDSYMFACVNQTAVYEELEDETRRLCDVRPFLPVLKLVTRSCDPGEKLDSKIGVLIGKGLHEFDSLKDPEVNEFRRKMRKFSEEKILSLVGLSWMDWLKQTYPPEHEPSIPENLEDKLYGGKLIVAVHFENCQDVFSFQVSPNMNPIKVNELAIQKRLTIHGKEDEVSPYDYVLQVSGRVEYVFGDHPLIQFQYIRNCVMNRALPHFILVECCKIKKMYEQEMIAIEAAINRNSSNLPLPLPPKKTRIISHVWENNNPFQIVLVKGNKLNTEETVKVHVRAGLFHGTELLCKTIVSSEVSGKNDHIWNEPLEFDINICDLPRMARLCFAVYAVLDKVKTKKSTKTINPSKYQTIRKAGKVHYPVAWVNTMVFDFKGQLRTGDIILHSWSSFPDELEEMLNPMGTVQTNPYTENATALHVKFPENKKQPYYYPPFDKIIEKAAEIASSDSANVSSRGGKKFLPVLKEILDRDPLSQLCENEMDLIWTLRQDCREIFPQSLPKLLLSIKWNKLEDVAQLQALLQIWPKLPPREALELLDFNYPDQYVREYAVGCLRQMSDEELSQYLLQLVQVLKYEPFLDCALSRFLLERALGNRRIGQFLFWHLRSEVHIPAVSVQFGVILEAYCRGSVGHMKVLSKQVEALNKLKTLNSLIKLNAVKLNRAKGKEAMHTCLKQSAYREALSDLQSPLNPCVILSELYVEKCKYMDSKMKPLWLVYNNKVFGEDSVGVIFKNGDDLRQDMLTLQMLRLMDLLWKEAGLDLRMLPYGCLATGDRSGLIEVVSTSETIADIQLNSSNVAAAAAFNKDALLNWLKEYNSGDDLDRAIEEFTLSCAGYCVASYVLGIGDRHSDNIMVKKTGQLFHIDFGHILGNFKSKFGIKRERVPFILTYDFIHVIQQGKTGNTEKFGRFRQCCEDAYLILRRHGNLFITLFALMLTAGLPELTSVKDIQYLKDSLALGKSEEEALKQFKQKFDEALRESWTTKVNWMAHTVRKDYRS
PI3Kβ (p110β), sequence (P27986 whole entry partner, species assumed): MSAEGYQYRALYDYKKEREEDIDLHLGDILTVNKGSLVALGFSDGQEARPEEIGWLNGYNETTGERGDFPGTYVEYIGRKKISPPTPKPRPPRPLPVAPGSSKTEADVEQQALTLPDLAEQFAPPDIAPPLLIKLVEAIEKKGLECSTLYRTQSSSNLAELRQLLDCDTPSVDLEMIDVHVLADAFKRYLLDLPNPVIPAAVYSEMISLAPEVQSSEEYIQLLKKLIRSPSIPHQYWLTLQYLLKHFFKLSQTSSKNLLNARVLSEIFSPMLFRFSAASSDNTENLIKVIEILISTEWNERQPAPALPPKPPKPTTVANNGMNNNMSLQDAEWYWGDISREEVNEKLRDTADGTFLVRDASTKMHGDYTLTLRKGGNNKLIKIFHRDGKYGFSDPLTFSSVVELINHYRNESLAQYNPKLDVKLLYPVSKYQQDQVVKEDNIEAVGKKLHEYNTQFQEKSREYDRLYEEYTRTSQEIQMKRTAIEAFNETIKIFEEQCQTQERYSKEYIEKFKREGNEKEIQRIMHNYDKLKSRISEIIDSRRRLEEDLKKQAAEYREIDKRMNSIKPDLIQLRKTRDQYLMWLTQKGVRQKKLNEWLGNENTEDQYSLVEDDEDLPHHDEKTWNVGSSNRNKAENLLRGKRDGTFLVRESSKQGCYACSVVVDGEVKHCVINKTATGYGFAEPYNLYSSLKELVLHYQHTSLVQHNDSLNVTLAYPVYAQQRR
HDAC3, sequence (O15379 whole entry, species assumed): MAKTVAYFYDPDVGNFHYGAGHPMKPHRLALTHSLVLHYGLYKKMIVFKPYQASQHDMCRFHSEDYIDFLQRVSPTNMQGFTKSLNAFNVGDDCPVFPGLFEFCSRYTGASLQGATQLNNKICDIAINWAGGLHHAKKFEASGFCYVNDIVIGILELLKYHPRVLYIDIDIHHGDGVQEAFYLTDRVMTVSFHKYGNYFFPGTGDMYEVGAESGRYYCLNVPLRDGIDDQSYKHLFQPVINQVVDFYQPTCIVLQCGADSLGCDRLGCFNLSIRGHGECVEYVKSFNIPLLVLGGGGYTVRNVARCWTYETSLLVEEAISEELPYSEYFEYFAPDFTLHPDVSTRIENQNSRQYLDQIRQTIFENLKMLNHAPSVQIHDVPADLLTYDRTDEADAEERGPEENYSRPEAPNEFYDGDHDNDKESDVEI
HDAC3, sequence (Q9Y618 395-489 partner limits assumed, species assumed): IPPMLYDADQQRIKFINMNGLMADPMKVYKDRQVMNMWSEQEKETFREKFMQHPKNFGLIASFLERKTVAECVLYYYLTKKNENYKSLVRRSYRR
FKBP12, sequence (P62942 whole entry, species assumed): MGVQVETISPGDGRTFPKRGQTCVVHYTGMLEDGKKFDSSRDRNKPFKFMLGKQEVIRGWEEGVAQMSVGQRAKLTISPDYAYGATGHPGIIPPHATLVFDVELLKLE

Compound: CC(C)[C@H](C(=O)Nc1ccc(C(=O)NO)cc1)c1ccccc1 [AR-42, (S)-N-hydroxy-4-(3-methyl-2-phenylbutanamido)benzamide]
IC50 (HDAC): 30 nM

Compound: Cc1cc(Cl)ccc1OCCCC(=O)NO [Droxinostat, 4-(4-Chloro-2-methylphenoxy)-N-hydroxybutanamide]
IC50 (HDAC3): 16900 nM

Compound: CO[C@H]1C[C@@H]2CC[C@@H](C)[C@@](O)(O2)C(=O)C(=O)N2CCCC[C@H]2C(=O)O[C@H]([C@H](C)C[C@@H]2CC[C@@H](OCCO)[C@H](OC)C2)CC(=O)[C@H](C)/C=C(\C)[C@@H](O)[C@@H](OC)C(=O)[C@H](C)C[C@H](C)/C=C/C=C/C=C/1C [Everolimus]
IC50 (FKBP12): 1.6 to 2.4 nM

Compound: CCN(CC)Cc1ccc2cc(COC(=O)Nc3ccc(C(=O)NO)cc3)ccc2c1 [ITF2357]
IC50 (HDAC): 7.5 to 16 nM

Compound: O=C(/C=C/c1ccc(CN(CCO)CCc2c[nH]c3ccccc23)cc1)NO [LAQ824]
IC50 (HDAC): 32 nM

Compound: CN(C)c1ccc(C(=O)NCCCCCCC(=O)NO)cc1 [M344]
IC50 (HDAC): 100 nM

Compound: Cn1c(/C=C/C(=O)NO)ccc1/C=C/C(=O)c1cccc(F)c1 [MC1568]
IC50 (HDAC): 220 nM

Compound: COc1ccc(-c2ccc3ncc4c(c3c2)n(-c2ccc(N3CCNCC3)c(C(F)(F)F)c2)c(=O)n4C)cn1 [NVP-BGT226]
IC50 (PI3K/mTOR): 1 nM

Compound: COc1ccc(-c2cc3c(C)nc(N)nc3n([C@H]3CC[C@H](OCCO)CC3)c2=O)cn1 [PF-04691502]
IC50 [1]: 7.5 nM
IC50 [2]: 3.8 nM

Compound: Cc1[nH]c2ccccc2c1CCNCc1ccc(/C=C/C(=O)NO)cc1 [Panobinostat]
IC50 (Reh cells): 20 nM
IC50 (MOLT-4 cells): 5 nM

Compound: CCCCc1nc2cc(/C=C/C(=O)NO)ccc2n1CCN(CC)CC [SB939, (E)-3-(2-butyl-1-(2-(diethylamino)ethyl)-1H-benzo[d]imidazol-5-yl)-N-hydioxyacrylamide]
IC50 (HDAC): 40 to 140 nM

Compound: CO[C@H]1C[C@@H]2CC[C@@H](C)[C@@](O)(O2)C(=O)C(=O)N2CCCC[C@H]2C(=O)O[C@H]([C@H](C)C[C@@H]2CC[C@@H](OC(=O)C(C)(CO)CO)[C@H](OC)C2)CC(=O)[C@H](C)/C=C(\C)[C@@H](O)[C@@H](OC)C(=O)[C@H](C)C[C@H](C)/C=C/C=C/C=C/1C [Temsirolimus]
IC50 (mTOR): 1.76 nM

Compound: CCCC(CCC)C(=O)O [Valproic acid sodium salt]
IC50 (HDAC): 400000 nM

GI50 [3]: ≥ 1000 nM
GI50 (HL60): 230 to 384 nM
GI50 (U937): 230 to 384 nM
GI50 (Jurkat): 230 to 384 nM
Compound: Cc1sc2c(c1C)C(c1ccc(Cl)cc1)=N[C@@H](CC(=O)Nc1ccc(O)cc1)c1nnc(C)n1-2 [compound (1-1), 2-[(6S)-4-(4-chlorophenyl)-2,3,9-trimethyl-6H-thienol[3,2-f]-[1,2,4]triazolo[4,3-a][1,4]diazepin-6-yl]-N-(4-hydroxyphenyl)acetamide dihydrate]
BRD2 and BRD4 protein levels (BRD2 and BRD4): without modifying protein levels
mRNA levels of BRD2 and BRD4 (BRD2 and BRD4): up-regulation
c-MYC mRNA and protein levels (c-MYC [4]; sensitive cell lines (Example 8)): rapid and sustained downregulation
cMYC mRNA and protein levels (c-MYC [4]; sensitive cell lines, 500 nM, after 6-h and up to 72-h treatment): down-regulated
induction of apoptosis ([5]; sensitive cell lines (Example 7)): without induction of apoptosis
cell cycle effect ([5]; sensitive cell lines, time-dependent (Example 7)): cell cycle arrest in G1
cell cycle effect [5, 8]: increased proportion of cells in cell cycle phase G0/G1
induction of apoptosis [5, 8]: slight induction of apoptosis
effect in concomitant combination with demethylating agents, HDAC and mTOR inhibitors, glucocorticoids, and conventional cytotoxic drugs [6]: strong synergistic effects
levels of c-MYC RNA (c-MYC [7]; K562, after 4-h and 24-h exposure): decreased levels
cMYC protein levels (c-MYC [7]; K562, even after 72 h of treatment): constant

Compound: (3S,6S,9S,15aR)-9-((R)-sec-butyl)-6-((1-methoxy-1H-indol-2-yl)methyl)-3-(6-oxooetyl)decahydro-1H-pyrido[1,2-a][1,4,7,10]tetraazacyclododecine-1,4,7,10(12H)-tetraone [Apicidin]
IC50 (HDAC): 0.7 nM

Compound: GSK2126458
Ki (PI3Kβ (p110β)): 0.13 nM
Ki (PI3Kγ (p110γ)): 0.024 nM
